From patent US8013156B2 (Exelixis, Inc., priority 2003, dated 2011)

Each molecule was assayed against Tie-2 (Homo sapiens, UniProt Q02763) (assay: Tie-2 tyrosine kinase activity assay (luciferase/luciferin ATP consumption with pEY substrate, or 33P-ATP incorporation)). Settings: human enzyme Tie-2.
Format: biochemical
Method in brief: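 Values are IC50 categories (A <50 nM to D ≥10,000 nM), with Ki obtainable by fitting rates to a tight-binding model. Assay formats: 33P-ATP phosphate transfer to adsorbed generic substrate counted by scintillation, or luciferase-detected ATP depletion using pEY.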

Chain of Tie-2 (Q02763 23-1124): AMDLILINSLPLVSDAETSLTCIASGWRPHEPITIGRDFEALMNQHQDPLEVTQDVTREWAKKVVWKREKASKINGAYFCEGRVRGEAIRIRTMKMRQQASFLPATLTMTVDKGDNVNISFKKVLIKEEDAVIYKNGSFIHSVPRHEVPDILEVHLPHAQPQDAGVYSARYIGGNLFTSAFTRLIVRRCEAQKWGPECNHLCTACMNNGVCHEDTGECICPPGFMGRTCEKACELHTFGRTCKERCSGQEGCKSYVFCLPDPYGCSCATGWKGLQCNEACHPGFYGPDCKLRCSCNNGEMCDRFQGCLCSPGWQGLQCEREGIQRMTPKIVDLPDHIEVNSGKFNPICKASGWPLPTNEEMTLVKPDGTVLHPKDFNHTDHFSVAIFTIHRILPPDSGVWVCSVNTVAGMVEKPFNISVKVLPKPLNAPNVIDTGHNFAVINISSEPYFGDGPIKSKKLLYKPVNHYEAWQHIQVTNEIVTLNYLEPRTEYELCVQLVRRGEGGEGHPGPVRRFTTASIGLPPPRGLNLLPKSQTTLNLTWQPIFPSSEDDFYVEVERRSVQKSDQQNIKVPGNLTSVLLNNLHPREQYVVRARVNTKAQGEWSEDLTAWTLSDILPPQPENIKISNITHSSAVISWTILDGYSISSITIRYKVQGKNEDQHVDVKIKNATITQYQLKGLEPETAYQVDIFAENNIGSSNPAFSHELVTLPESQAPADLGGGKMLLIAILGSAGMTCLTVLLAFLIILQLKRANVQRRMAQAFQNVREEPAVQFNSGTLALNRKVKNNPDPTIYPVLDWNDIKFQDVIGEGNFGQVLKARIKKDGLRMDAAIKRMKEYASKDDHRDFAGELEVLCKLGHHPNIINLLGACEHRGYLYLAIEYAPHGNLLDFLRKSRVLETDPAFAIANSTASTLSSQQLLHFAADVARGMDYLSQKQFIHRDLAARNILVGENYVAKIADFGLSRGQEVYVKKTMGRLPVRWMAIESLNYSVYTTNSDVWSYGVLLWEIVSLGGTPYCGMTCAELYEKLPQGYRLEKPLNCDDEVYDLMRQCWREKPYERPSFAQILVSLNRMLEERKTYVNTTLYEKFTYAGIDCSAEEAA

| IC50 | Structure (SMILES) |
| --- | --- |
| 1000 to 10000 nM | Nc1nccc(COc2cccnc2N2CCN(C(=O)Nc3ccccc3)CC2)n1 [Example 178, 4-(3-{[(2-aminopyrimidin-4-yl)methyl]oxy}pyridin-2-yl)-N-phenylpiperazine-1-carboxamide] |
| < 50 nM | C[C@H]1CN(c2nccnc2OCc2ccncc2)CCN1C(=O)Nc1cc(C(F)(F)F)cc(C(F)(F)F)c1 [Example 80, (2S)-N-[3,5-bis(trifluoromethyl)phenyl]-2-methyl-4-{3-[(pyridin-4-ylmethyl)oxy]pyrazin-2-yl}piperazine-1-carboxamide] |
| < 50 nM | Cc1ccc(OCc2ccnc(N)n2)c(N2CCN(C(=O)Nc3cc(C(F)(F)F)cc(C(F)(F)F)c3)CC2)n1 [Example 228, 4-(3-{[(2-aminopyrimidin-4-yl)methyl]oxy}-6-methylpyridin-2-yl)-N-[3,5-bis(trifluoromethyl)phenyl]piperazine-1-carboxamide] |
| < 50 nM | Nc1nccc(COc2ccccc2N2CCN(C(=O)Nc3cc(C(F)(F)F)ccc3F)CC2)n1 [Example 268, 4-(2-{[(2-aminopyrimidin-4-yl)methyl]oxy}phenyl)-N-[2-fluoro-5-(trifluoromethyl)phenyl]piperazine-1-carboxamide] |
| 50 to 1000 nM | CSc1cccc(NC(=O)N2CCN(c3nsnc3OCc3ccnc(N)n3)CC2)c1 [Example 266, 4-(4-{[(2-aminopyrimidin-4-yl)methyl]oxy}-1,2,5-thiadiazol-3-yl)-N-[3-(methylthio)phenyl]piperazine-1-carboxamide] |
| 50 to 1000 nM | CCN(CC)CC(=O)Nc1cc(COc2nsnc2N2CCN(C(=O)Nc3cc(C(F)(F)F)cc(C(F)(F)F)c3)CC2)ccn1 [Example 156, N-[3,5-bis(trifluoromethyl)phenyl]-4-{4-[({2-[(N,N-diethylglycyl)amino]pyridin-4-yl}methyl)oxy]-1,2,5-thiadiazol-3-yl}piperazine-1-carboxamide] |
| ≥ 10000 nM | CNC(=O)N1CCN(c2ncccc2OCc2ccnc(N)n2)CC1 [Example 204, 4-(3-{[(2-aminopyrimidin-4-yl)methyl]oxy}pyridin-2-yl)-N-methylpiperazine-1-carboxamide] |
| 1000 to 10000 nM | COc1ccc(OC)c(NC(=O)N2CCN(c3nsnc3OCc3ccnc(N)n3)CC2)c1 [Example 254, 4-(4-{[(2-aminopyrimidin-4-yl)methyl]oxy}-1,2,5-thiadiazol-3-yl)-N-[2,5-bis(methyloxy)phenyl]piperazine-1-carboxamide] |
| < 50 nM | CN1CCN(CC(=O)Nc2cc(COc3nsnc3N3CCN(C(=O)Nc4cc(C(F)(F)F)cc(C(F)(F)F)c4)CC3)ccn2)CC1 [Example 155, N-[3,5-bis(trifluoromethyl)phenyl]-4-(4-{[(2-{[(4-methylpiperazin-1-yl)acetyl]amino}pyridin-4-yl)methyl]oxy}-1,2,5-thiadiazol-3-yl)piperazine-1-carboxamide] |
| < 50 nM | CCc1cccc(NC(=O)N2CCN(c3nc(C)ccc3OCc3ccnc(N)n3)CC2)c1 [Example 227, 4-(3-{[(2-aminopyrimidin-4-yl)methyl]oxy}-6-methylpyridin-2-yl)-N-(3-ethylphenyl)piperazine-1-carboxamide] |
| ≥ 10000 nM | CC(C)CNC(=O)N1CCN(c2ncccc2OCc2ccnc(N)n2)CC1 [Example 220, 4-(3-{[(2-aminopyrimidin-4-yl)methyl]oxy}pyridin-2-yl)-N-(2-methylpropyl)piperazine-1-carboxamide] |
| ≥ 10000 nM | Nc1nccc(COc2cccnc2N2CCN(C(=O)N3CCCc4ccccc43)CC2)n1 [Example 219, 4-[({2-[4-(3,4-dihydroquinolin-1(2H)-ylcarbonyl)piperazin-1-yl]pyridin-3-yl}oxy)methyl]pyrimidin-2-amine] |
| < 50 nM | O=C(CN1CCCC1)Nc1cc(COc2nsnc2N2CCN(C(=O)Nc3cc(C(F)(F)F)cc(C(F)(F)F)c3)CC2)ccn1 [Example 154, N-[3,5-bis(trifluoromethyl)phenyl]-4-{4-[({2-[(pyrrolidin-1-ylacetyl)amino]pyridin-4-yl}methyl)oxy]-1,2,5-thiadiazol-3-yl}piperazine-1-carboxamide] |
| 50 to 1000 nM | Nc1nccc(COc2nccnc2N2CCN(C(=O)Nc3ccccc3)CC2)n1 [Example 224, 4-(3-{[(2-aminopyrimidin-4-yl)methyl]oxy}pyrazin-2-yl)-N-phenylpiperazine-1-carboxamide] |
| < 50 nM | Nc1nccc(COc2cccnc2N2CCN(C(=O)Nc3cc(C(F)(F)F)cc(Cl)c3F)CC2)n1 [Example 249, 4-(3-{[(2-aminopyrimidin-4-yl)methyl]oxy}pyridin-2-yl)-N-[3-chloro-2-fluoro-5-(trifluoromethyl)phenyl]piperazine-1-carboxamide] |
| < 50 nM | CCNc1cc(COc2nsnc2N2CCN(C(=O)Nc3cc(C(F)(F)F)cc(C(F)(F)F)c3)CC2)ccn1 [Example 113, N-[3,5-bis(trifluoromethyl)phenyl]-4-[4-({[2-(ethylamino)pyridin-4-yl]methyl}oxy)-1,2,5-thiadiazol-3-yl]piperazine-1-carboxamide] |
| < 50 nM | CCN(CC)CCOC(=O)Nc1cc(COc2nsnc2N2CCN(C(=O)Nc3cc(C(F)(F)F)cc(C(F)(F)F)c3)CC2)ccn1 [Example 160, 2-(diethylamino)ethyl {4-[({4-[4-({[3,5-bis(trifluoromethyl)phenyl]amino}carbonyl)piperazin-1-yl]-1,2,5-thiadiazol-3-yl}oxy)methyl]pyridin-2-yl}carbamate] |

| IC50 | Structure (SMILES) |
| --- | --- |
| 50 to 1000 nM | O=C(Nc1cccc(C(F)(F)F)c1)C1CCN(c2nsnc2OCc2ccncc2)CC1 [Example 37, 1-{4-[(pyridin-4-ylmethyl)oxy]-1,2,5-thiadiazol-3-yl}-N-[3-(trifluoromethyl)phenyl]piperidine-4-carboxamide] |
| 50 to 1000 nM | O=C(Nc1nccc(COc2nsnc2N2CCN(C(=O)Nc3cc(C(F)(F)F)cc(C(F)(F)F)c3)CC2)n1)c1ccccc1 [Example 126, N-[3,5-bis(trifluoromethyl)phenyl]-4-{4-[({2-[(phenylcarbonyl)amino]pyrimidin-4-yl}methyl)oxy]-1,2,5-thiadiazol-3-yl}piperazine-1-carboxamide] |
| ≥ 10000 nM | CN(C)c1cccc(COc2nsnc2N2CCN(C(=O)Nc3cc(C(F)(F)F)cc(C(F)(F)F)c3)CC2)c1 [Example 11, N-[3,5-bis(trifluoromethyl)phenyl]-4-[4-({[3-(dimethylamino)phenyl]methyl}oxy)-1,2,5-thiadiazol-3-yl]piperazine-1-carboxamide] |
| < 50 nM | CCc1cccc(NC(=O)N2CCN(c3nccnc3OCc3ccnc(N)n3)CC2)c1 [Example 201, 4-(3-{[(2-aminopyrimidin-4-yl)methyl]oxy}pyrazin-2-yl)-N-(3-ethylphenyl)piperazine-1-carboxamide] |
| < 50 nM | CC1CN(c2nccnc2OCc2ccncc2)CCN1C(=O)Nc1cc(C(F)(F)F)cc(C(F)(F)F)c1 (stereo not shown) [Example 62, N-[3,5-bis(trifluoromethyl)phenyl]-2-methyl-4-{3-[(pyridin-4-ylmethyl)oxy]pyrazin-2-yl}piperazine-1-carboxamide] |
| < 50 nM | CCc1cc(NC(=O)N2CCN(c3ccccc3OCc3ccnc(N)n3)CC2)cc(C(F)(F)F)c1 [Example 277, 4-(2-{[(2-aminopyrimidin-4-yl)methyl]oxy}phenyl)-N-[3-ethyl-5-(trifluoromethyl)phenyl]piperazine-1-carboxamide] |
| < 50 nM | CCc1cccc(NC(=O)N2CCN(c3ncccc3OCc3ccnc(NC(=O)CN4CCN(C)CC4)c3)CC2)c1 [Example 171, N-(3-ethylphenyl)-4-(3-{[(2-{[(4-methylpiperazin-1-yl)acetyl]amino}pyridin-4-yl)methyl]oxy}pyridin-2-yl)piperazine-1-carboxamide] |
| < 50 nM | CCc1cc(Br)cc(NC(=O)N2CCN(c3nccnc3OCc3ccnc(N)n3)CC2)c1 [Example 236, 4-(3-{[(2-aminopyrimidin-4-yl)methyl]oxy}pyrazin-2-yl)-N-(3-bromo-5-ethylphenyl)piperazine-1-carboxamide] |
| 50 to 1000 nM | O=C(Nc1cccc(C(F)(F)F)c1)N1CCN(c2nsnc2OCc2ccncc2)CC1 [Example 9] |
| ≥ 10000 nM | CCNC(=O)N1CCN(c2ncccc2OCc2ccnc(N)n2)CC1 [Example 205, 4-(3-{[(2-aminopyrimidin-4-yl)methyl]oxy}pyridin-2-yl)-N-ethylpiperazine-1-carboxamide] |
| 50 to 1000 nM | O=C(Nc1cc(C(F)(F)F)cc(C(F)(F)F)c1)N1CCCN(c2nsnc2OCc2ccncc2)CC1 [Example 23] |
| < 50 nM | CCc1ccc(F)c(NC(=O)N2CCN(c3ncccc3OCc3ccnc(NC(=O)CN4CCN(C)CC4)c3)CC2)c1 [Example 199, N-(5-ethyl-2-fluorophenyl)-4-(3-{[(2-{[(4-methylpiperazin-1-yl)acetyl]amino}pyridin-4-yl)methyl]oxy}pyridin-2-yl)piperazine-1-carboxamide] |
| < 50 nM | Nc1nccc(COc2nsnc2N2CCN(C(=O)Nc3cc(Cl)cc(C(F)(F)F)c3)CC2)n1 [Example 240, 4-(4-{[(2-aminopyrimidin-4-yl)methyl]oxy}-1,2,5-thiadiazol-3-yl)-N-[3-chloro-5-(trifluoromethyl)phenyl]piperazine-1-carboxamide] |
| < 50 nM | CCc1cccc(NC(=O)N2CCN(c3nccnc3OCc3ccncc3)CC2)c1 [Example 92, N-(3-ethylphenyl)-4-{3-[(pyridin-4-ylmethyl)oxy]pyrazin-2-yl}piperazine-1-carboxamide] |
| ≥ 10000 nM | O=C(Nc1ccc(Cl)cc1)N1CCN(c2ncccc2OCc2ccncc2)CC1 [Example 103, N-(4-chlorophenyl)-4-{3-[(pyridin-4-ylmethyl)oxy]pyridin-2-yl}piperazine-1-carboxamide] |
| < 50 nM | COc1cc2nccc(COc3nsnc3N3CCN(C(=O)Nc4cc(C(F)(F)F)cc(C(F)(F)F)c4)CC3)c2cc1OC [Example 273, 4-[4-({[6,7-bis(methyloxy)quinolin-4-yl]methyl}oxy)-1,2,5-thiadiazol-3-yl]-N-[3,5-bis(trifluoromethyl)phenyl]piperazine-1-carboxamide] |
| 1000 to 10000 nM | Nc1nccc(COc2ccccc2N2CCN(C(=O)Nc3cccc(F)c3)CC2)n1 [Example 269, 4-(2-{[(2-aminopyrimidin-4-yl)methyl]oxy}phenyl)-N-(3-fluorophenyl)piperazine-1-carboxamide] |
